Results: patent publication US7851474B2, “Dipiperazinyl ketones and related analogues” (Neurogen Corporation, priority 2005, dated 2010)
pKi: −log10 of the molar value.

Biological target: T1, chimeric human H3 receptor (Homo sapiens, UniProt Q9Y5N1, E19D)
T1 construct: made in house; host or cells: Sf9 insect cells (baculovirus infection); P2 membrane preparation
Assay: Chimeric human H3 receptor GTP binding assay (agonist-stimulated GTP-gamma35S binding, Example 7)
Format: biochemical
Conditions: not given
Method in brief: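 IC50 values come from non-linear regression of dose-response curves of filter-bound GTP-gamma^35S, counted by scintillation. Membranes were from infected Sf9 cells carrying receptor plus G-protein subunits, 35 μg/tube, with 10 μM GDP present.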

T1 sequence (Q9Y5N1 with tags, fused parts or gaps E19D): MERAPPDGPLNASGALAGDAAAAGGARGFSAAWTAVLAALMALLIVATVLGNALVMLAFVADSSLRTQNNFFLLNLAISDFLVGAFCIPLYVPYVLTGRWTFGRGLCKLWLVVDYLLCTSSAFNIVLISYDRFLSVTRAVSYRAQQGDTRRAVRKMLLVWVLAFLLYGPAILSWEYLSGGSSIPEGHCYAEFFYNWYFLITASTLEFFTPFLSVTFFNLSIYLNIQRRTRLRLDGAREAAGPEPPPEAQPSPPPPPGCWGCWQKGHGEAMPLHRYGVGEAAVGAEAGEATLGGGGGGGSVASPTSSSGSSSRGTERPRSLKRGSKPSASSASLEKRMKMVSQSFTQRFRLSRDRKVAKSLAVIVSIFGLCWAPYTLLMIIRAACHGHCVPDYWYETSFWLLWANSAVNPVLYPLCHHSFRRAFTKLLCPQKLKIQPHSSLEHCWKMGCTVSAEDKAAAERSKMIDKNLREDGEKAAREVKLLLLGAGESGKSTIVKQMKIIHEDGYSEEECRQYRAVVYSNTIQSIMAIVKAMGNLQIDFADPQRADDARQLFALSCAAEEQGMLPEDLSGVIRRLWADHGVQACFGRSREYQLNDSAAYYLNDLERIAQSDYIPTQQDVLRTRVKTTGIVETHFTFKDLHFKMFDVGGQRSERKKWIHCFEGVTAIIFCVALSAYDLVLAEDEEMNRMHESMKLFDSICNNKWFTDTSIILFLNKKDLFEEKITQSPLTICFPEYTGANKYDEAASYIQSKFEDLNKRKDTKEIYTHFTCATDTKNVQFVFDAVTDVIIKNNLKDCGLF

Structure (SMILES) | pKi
CCN1CCN(C(=O)CN2CCN(c3ccc(OC)cc3)CC2)CC1 [Compound 843, 1-ethyl-4-{[4-(4-methoxyphenyl)piperazin-1-yl]acetyl}piperazine] | > 6.00

Same assay, conditions: "*" in Ki of Table II; assay of Example 7; read-out: Ki

pKi | Structure (SMILES)
> 6.00 | CC(C)N1CCN(C(=O)CN2CCN(c3ccc(Cl)c(C(F)(F)F)c3)CC2)CC1 [Compound 467, 1-[4-chloro-3-(trifluoromethyl)phenyl]-4-[2-(4-isopropylpiperazin-1-yl)-2-oxoethyl]piperazine]
> 6.00 | COc1ccc(OC)c(CC(=O)N2CCN(CC(=O)N3CCN(C4CCC4)CC3)CC2)c1 [Compound 509, 1-cyclobutyl-4-({4-[(2,5-dimethoxyphenyl)acetyl]piperazin-1-yl}acetyl)piperazine]
> 6.00 | O=C(CN1CCN(c2ccc(Cl)c(C(F)(F)F)c2)CC1)N1CCN(C2CCCC2)CC1 [Compound 466, 1-[4-chloro-3-(trifluoromethyl)phenyl]-4-[2-(4-cyclopentylpiperazin-1-yl)-2-oxoethyl]piperazine]

Same assay, conditions: Table II "Ki", symbol "*": Ki in the assay of Example 7; read-out: Ki

pKi | Structure (SMILES)
> 6.00 | O=C(CN1CCN(c2ccc(F)c(C(F)(F)F)c2)CC1)N1CCN(C2CCCCC2)CC1 [Compound 804, 1-cyclohexyl-4-({4-[4-fluoro-3-(trifluoromethyl)phenyl]piperazin-1-yl}acetyl)piperazine]
> 6.00 | O=C(CN1CCN(C(=O)C2CCCO2)CC1)N1CCN(C2CCCCC2)CC1 (stereo not shown) [Compound 826, 1-cyclohexyl-4-{[4-(tetrahydrofuran-2-ylcarbonyl)piperazin-1-yl]acetyl}piperazine]
> 6.00 | O=C(CN1CCN(c2ccc(F)cc2)CC1)N1CCN(C2CCC2)CC1 [Compound 775, 1-cyclobutyl-4-{[4-(4-fluorophenyl)piperazin-1-yl]acetyl}piperazine]

Second part, the compound before the results:

Structure (SMILES) | pKi
CC(C)(C)c1ccc(-c2cnc(N3CCN(CC(=O)N4CCN(C5CCC5)CC4)CC3)cn2)cc1 [Compound 910, 2-(4-tert-butylphenyl)-5-{4-[2-(4-cyclobutylpiperazin-1-yl)-2-oxoethyl]piperazin-1-yl}pyrazine] | > 6.00
CCC(C)N1CCN(C(=O)CN2CCN(c3ccc(C)cc3)CC2)CC1 (stereo not shown) [Compound 882, 1-sec-butyl-4-{[4-(4-methylphenyl)piperazin-1-yl]acetyl}piperazine] | > 6.00

Same assay, conditions: Table II, "*" in Ki; assay of Example 7; read-out: Ki

pKi | Structure (SMILES)
> 6.00 | Cc1cccc(N2CCN(CC(=O)N3CCN(C4CCC4)CC3)CC2)c1C [Compound 672, 1-cyclobutyl-4-{[4-(2,3-dimethylphenyl)piperazin-1-yl]acetyl}piperazine]
> 6.00 | CC1CCCN1C(=O)c1ccc(N2CCN(CC(=O)N3CCN(C4CCC4)CC3)CC2)cc1 (stereo not shown) [Compound 645, 1-cyclobutyl-4-[(4-{4-[(2-methylpyrrolidin-1-yl)carbonyl]phenyl}piperazin-1-yl)acetyl]piperazine]
> 6.00 | CC1CCCN1C(=O)c1ccc(N2CCN(CC(=O)N3CCN(C4CCC4)CC3)CC2)nc1 (stereo not shown) [Compound 652, 1-cyclobutyl-4-[(4-{5-[(2-methylpyrrolidin-1-yl)carbonyl]pyridin-1-yl}piperazin-1-yl)acetyl]piperazine]

The next lines start with the compound.

Structure (SMILES) | pKi
COc1cccc(-c2ccc(N3CCN(CC(=O)N4CCN(C5CCC5)CC4)CC3)cc2)c1 [Compound 758, 1-cyclobutyl-4-{[4-(3′-methoxybiphenyl-4-yl)piperazin-1-yl]acetyl}piperazine] | > 6.00
Cc1cccc(-c2ccc(N3CCN(CC(=O)N4CCN(C5CCC5)CC4)CC3)cc2)c1 [Compound 762, 1-cyclobutyl-4-{[4-(3′-methylbiphenyl-4-yl)piperazin-1-yl]acetyl}piperazine] | > 6.00

Same assay, conditions: Table II; assay of Example 7; "*" in Ki; read-out: Ki

pKi | Structure (SMILES)
> 6.00 | O=C(NCC1CC1)c1ccc(N2CCN(CC(=O)N3CCN(C4CCC4)CC3)CC2)cc1 [Compound 1133, 4-{4-[2-(4-cyclobutylpiperazin-1-yl)-2-oxoethyl]piperazin-1-yl}-N-(cyclopropylmethyl) benzamide]
> 6.00 | O=C(CN1CCN(c2ccc(C(=O)N3CCOCC3)cc2)CC1)N1CCN(C2CCC2)CC1 [Compound 1093, 4-(4-{4-[2-(4-cyclobutylpiperazin-1-yl)-2-oxoethyl]piperazin-1-yl}benzoyl)morpholine]

Second part, the compound before the results:

Structure (SMILES) | pKi
CCOc1ccccc1-c1cnc(N2CCN(CC(=O)N3CCN(C4CCC4)CC3)CC2)cn1 [Compound 955, 2-{4-[2-(4-cyclobutylpiperazin-1-yl)-2-oxoethyl]piperazin-1-yl}-5-(2-ethoxyphenyl)pyrazine] | > 6.00
O=C(CN1CCN(c2ccc(-c3ccc4ccccc4c3)nn2)CC1)N1CCN(C2CCC2)CC1 [Compound 1006, 3-{4-[2-(4-cyclobutylpiperazin-1-yl)-2-oxoethyl]piperazin-1-yl}-6-(2-naphthyl)pyridazine] | > 6.00
O=C(CN1CCN(c2ccc(-c3cccc(OC(F)(F)F)c3)nn2)CC1)N1CCN(C2CCC2)CC1 [Compound 1024, 3-{4-[2-(4-cyclobutylpiperazin-1-yl)-2-oxoethyl]piperazin-1-yl}-6-[3-(trifluoromethoxy)phenyl} pyridazine] | > 6.00
O=C(CN1CCN(c2cnc(-c3cc(Cl)ccc3Cl)cn2)CC1)N1CCN(C2CCC2)CC1 [Compound 973, 2-{4-[2-(4-cyclobutylpiperazin-1-yl)-2-oxoethyl]piperazin-1-yl}-5-(2,5-dichlorophenyl)pyrazine] | > 6.00
Cc1ccc(-c2ccc(N3CCN(CC(=O)N4CCN(C5CCC5)CC4)CC3)nn2)cc1F [Compound 1009, 3-{4-[2-(4-cyclobutylpiperazin-1-yl)-2-oxoethyl]piperazin-1-yl}-6-(3-fluoro-4-methylphenyl)pyridazine] | > 6.00
Cc1ccc(N2CCN(CC(=O)N3CCN(C4CCCC4)CC3)CC2C)cc1 (stereo not shown) [Compound 1109, 4-[2-(4-cyclopentylpiperazin-1-yl)-2-oxoethyl]-2-methyl-1-(4-methylphenyl)piperazine] | > 6.00
CCC(CC)CNC(=O)c1cccc(N2CCN(CC(=O)N3CCN(C4CCC4)CC3)CC2)c1 [Compound 1086, 3-{4-[2-(4-cyclobutylpiperazin-1-yl)-2-oxoethyl]piperazin-1-yl}-N-(2-ethylbutyl)benzamide] | > 6.00
CN(C)c1cccc(-c2ccc(N3CCN(CC(=O)N4CCN(C5CCC5)CC4)CC3)cc2)c1 [Compound 1117, 4′-{1-[2-(4-cyclobutylpiperazin-1-yl)-2-oxoethyl]piperazin-1-yl}-N,N-dimethylbiphenyl-3-amine] | > 6.00
O=C(CN1CCN(c2cnc(-c3ccccc3C(F)(F)F)cn2)CC1)N1CCN(C2CCC2)CC1 [Compound 969, 2-{4-[2-(4-cyclobutylpiperazin-1-yl)-2-oxoethyl]piperazin-1-yl}-5-[2-(trifluoromethyl)phenyl] pyrazine] | > 6.00
O=C(CN1CCN(c2ccc(-c3ccc(F)c(F)c3)nn2)CC1)N1CCN(C2CCC2)CC1 [Compound 1049, 3-{4-[2-(4-cyclobutylpiperazin-1-yl)-2-oxoethyl]piperazin-1-yl}-6-(3,4-difluorophenyl)pyridazine] | > 6.00

Same assay, conditions: assay of Example 7; "*" in Ki of Table II; read-out: Ki

pKi | Structure (SMILES)
> 6.00 | CC(C)CC(=O)NC1CCN(CC(=O)N2CCN(C3CCC3)CC2)C1 (stereo not shown) [Compound 1246, N-{1-[2-(4-cyclobutylpiperazin-1-yl)-2-oxoethyl]pyrrolidin-3-yl}-3-methylbutanamide]
> 6.00 | O=C(NC1CCCC1)c1ccc(N2CCN(CC(=O)N3CCN(C4CCC4)CC3)CC2)nc1 [Compound 1183, 6-{4-[2-(4-cyclobutylpiperazin-1-yl)-2-oxoethyl]piperazin-1-yl}-N-cyclopentylnicotinamide]
> 6.00 | N#Cc1cnc(N2CCN(CC(=O)N3CCN(C4CCC4)CC3)CC2)cn1 [Compound 1158, 5-{4-[2-(4-cyclobutylpiperazin-1-yl)-2-oxoethyl]piperazin-1-yl}pyrazine-2-carbonitrile]
> 6.00 | O=C(NC1CCCCCC1)c1ccc(N2CCN(CC(=O)N3CCN(C4CCC4)CC3)CC2)cc1 [Compound 1143, 4-{4-[2-(4-cyclobutylpiperazin-1-yl)-2-oxoethyl]piperazin-1-yl}-N-cycloheptylbenzamide]
> 6.00 | CNC(=O)c1ccc(N2CCN(CC(=O)N3CCN(C4CCC4)CC3)CC2)nc1 [Compound 1167, 6-{4-[2-(4-cyclobutylpiperazin-1-yl)-2-oxoethyl]piperazin-1-yl}-N-methylnicotinamide]

Same assay, conditions: assay of Example 7; symbol * in column headed Ki of Table II; read-out: Ki

pKi | Structure (SMILES)
> 6.00 | O=C(CN1CCN(c2ccc(C(=O)N3CCCCCC3)cc2)CC1)N1CCN(C2CCC2)CC1 [Compound 317, 1-(4-{4-[2-(4-cyclobutylpiperazin-1-yl)-2-oxoethyl]piperazin-1-yl}benzoyl)azepane]
> 6.00 | CC(=O)c1ccc(N2CCN(CC(=O)N3CCN(C4CCC4)CC3)CC2)c(F)c1 [Compound 311, 1-(4-{4-[2-(4-cyclobutylpiperazin-1-yl)-2-oxoethyl]piperazin-1-yl}-3-fluorophenyl)ethanone]
> 6.00 | O=C(CN1CCN(c2ccc(C(=O)N3CCCCCC3)cn2)CC1)N1CCN(C2CCC2)CC1 [Compound 415, 1-[(6-{4-[2-(4-cyclobutylpiperazin-1-yl)-2-oxoethyl]piperazin-1-yl}pyridin-3-yl)carbonyl]azepane]
> 6.00 | COc1ccc(Br)cc1CC(=O)N1CCN(CC(=O)N2CCN(C3CCC3)CC2)CC1 [Compound 409, 1-[(5-bromo-2-methoxyphenyl)acetyl]-4-[2-(4-cyclobutylpiperazin-1-yl)-2-oxoethyl]piperazine]

The next lines start with the compound.

Structure (SMILES) | pKi
CC(=O)c1ccc(N2CCC(C(C)(C)C(=O)N3CCN(C4CCCC4)CC3)CC2)cc1 [Compound 322, 1-(4-{4-[2-(4-cyclopentylpiperazin-1-yl)-1,1-dimethyl-2-oxoethyl]piperidin-1-yl}phenyl)ethanone] | > 6.00
COc1ccc(Cl)cc1-c1ccc(N2CCN(CC(=O)N3CCN(C4CCC4)CC3)CC2)cc1 [Compound 365, 1-(5′-chloro-2′-methoxybiphenyl-4-yl)-4-[2-(4-cyclobutylpiperazin-1-yl)-2-oxoethyl]piperazine] | > 6.00
